In patent US9133167B2, “Antibacterial quinoline derivatives” (JANSSEN PHARMACEUTICA NV, priority 2012, dated 2015):
In brackets after ≈: the same amount, converted by molar mass. Counter-ions that a name gives are not always drawn.

Legend:
[1] = system: Staphylococcus aureus (ATCC29213); assay: Microtitre plate assay, IC90 for bacterial growth, Staphylococcus aureus strain; format: cell-based; details: 90% inhibitory concentration for bacterial growth, 24 hours at 37° C.; for IC90: read-out: IC90 (μg/ml) STA B29213
Procedure: D.2. In-Vitro Method for Testing Compounds for Anti-Bacterial Activity Against a Non-Mycobacterial Strain
Preparation of Bacterial Suspensions for Susceptibility Testing:
The bacteria used in this study were grown overnight in flasks containing 100 ml Mueller-Hinton Broth (Becton Dickinson—cat. no. 275730) in sterile de-ionized water, with shaking, at 37° C. Stocks (0.5 ml/tube) were stored at −70° C. until use. Bacteria titrations were performed in microtiter plates to detect the TCID50, in which TCID50 represents the dilution that gives rise to bacterial growth in 50% of inoculated cultures. In general, an inoculum level of approximately 100 TCID50 was used for susceptibility testing.
Anti Bacterial Susceptibility Testing: IC90 Determination
Flat-bottom, sterile 96-well plastic microtiter plates were filled with 180 μl of sterile deionized water, supplemented with 0.25% BSA. Subsequently, stock solutions (7.8× final test concentration) of compounds were added in 45 μl volumes in column 2 Serial five-fold dilutions (45 μl in 180 μl) were made directly in the microtiter plates from column 2 to reach column 11. Untreated control samples with (column 1) and without (column 12) inoculum were included in each microtiter plate. Depending on the bacteria type, approximately 10 to 60 CFU per well of bacteria inoculum (100 TCID50), in a volume of 100 μl in 2.8× Mueller-Hinton broth medium, was added to the rows A to H, except column 12. The same volume of broth medium without inoculum was added to column 12 in row A to H. The cultures were incubated at 37° C. for 24 hours under a normal atmosphere (incubator with open air valve and continuous ventilation). At the end of incubation, one day after inoculation, the bacterial growth was quantitated fluorometrically. Therefore resazurin (0.6 mg/ml) was added in a volume of 20 μl to all wells 3 hours after inoculation, and the plates were re-incubated overnight. A change in colour from blue to pink indicated the growth of bacteria. The fluorescence was read in a computer-controlled fluorometer (Cytofluor Biosearch) at an excitation wavelength of 530 nm and an emission wavelength of 590 nm. The % growth inhibition achieved by the compounds was calculated according to standard methods. The IC90 (expressed in μg/ml) was defined as the 90% inhibitory concentration for bacterial growth. The results are shown in Table 7 for an assay using a Staphylococcus aureus strain.

[2] = system: Mycobacterium smegmatis (ATCC607); assay: In-vitro anti-bacterial activity against strain M. smegmatis ATCC607 (Alamar Blue growth inhibition); format: cell-based; details: 90% inhibitory concentration for bacterial growth, 48 hours at 37° C.; for IC90: Mycolicibacterium smegmatis, read-out: IC90 (μg/ml) MSM 607
Procedure: D.1. In-Vitro Method for Testing Compounds for Anti-Bacterial Activity Against Strain M. Smegmatis ATCC607.
Flat-bottom, sterile 96-well plastic microtiter plates were filled with 180 μl of sterile deionized water, supplemented with 0.25% BSA. Subsequently, stock solutions (7.8× final test concentration) of compounds were added in 45 μl volumes to a series of duplicate wells in column 2 so as to allow evaluation of their effects on bacterial growth. Serial five-fold dilutions (45 μl in 180 μl) were made directly in the microtiter plates from column 2 to 11 using a customised robot system (Zymark Corp., Hopkinton, Mass.). Pipette tips were changed after every 3 dilutions to minimize pipetting errors with high hydrophobic compounds. Untreated control samples with (column 1) and without (column 12) inoculum were included in each microtiter plate. Approximately 250 CFU per well of bacteria inoculum, in a volume of 100 in 2.8× Mueller-Hinton broth medium, was added to the rows A to H, except column 12. The same volume of broth medium without inoculum was added to column 12 in row A to H. The cultures were incubated at 37° C. for 48 hours in a humidified 5% CO2 atmosphere (incubator with open air valve and continuous ventilation). At the end of incubation, two days after inoculation, the bacterial growth was quantitated fluorometrically. Therefore Alamar Blue (10×) was added to all wells in a volume of 20 and plates were incubated for another 2 hours at […]
The fluorescence was read in a computer-controlled fluorometer (Cytofluor, Biosearch) at an excitation wavelength of 530 nm and an emission wavelength of 590 nm (gain 30). The percentage growth inhibition achieved by the compounds was calculated according to standard methods and expressed as IC90 […] which defines the 90% inhibitory concentration for bacterial growth.

Row | SMILES | IC90 (μg/ml) STA B29213 [1] [µg/mL] | IC90 (μg/ml) MSM 607 [2] [µg/mL] | also measured
1 | CS(=O)(=O)c1ccc2[nH]c(=O)c(C(c3ccccc3)C3(O)CCNCC3)cc2c1 (centres unmarked) (as salt: HCl) [Compound 100] | – | – | melting point: > 260 °C
2 | OC1(C(c2ccc(Cl)cc2)c2cc3cc(Br)ccc3nc2N2CCOCC2)CCN(CCc2ccccc2)CC1 (centres unmarked) [Compound 1] | – | – | IC90 [1]: 6.81 µg/mL (≈ 11 µM); melting point: 158 °C
3 | COc1nc2ccc(Br)cc2cc1C(c1ccc(Cl)cc1)C1(O)CCN(Cc2ccccc2)CC1 (centres unmarked) [Compound 6] | – | – | IC90 [1]: > 13.9 µg/mL; IC90 [2]: > 13.9 µg/mL
4 | O=c1[nH]c2ccc(Br)cc2cc1C(c1ccc(Cl)cc1)C1(O)CCN(Cc2ccccc2)CC1 (centres unmarked) [Compound 10] | – | – | IC90 [1]: 4.27 µg/mL (≈ 7.94 µM); melting point: 244 °C
5 | C=Cc1ccc2nc(OC)c(C(c3ccc(Cl)cc3)C3(O)CCN(Cc4ccccc4)CC3)cc2c1 (centres unmarked) [Compound 11] | – | – | IC90 [1]: > 39.8 µg/mL; melting point: 195 °C
6 | COc1nc2ccccc2cc1C(c1ccccc1)C1(O)CCNCC1 (centres unmarked) [Compound 12] | – | – | IC90 [1]: > 22 µg/mL; melting point: 119 °C
7 | COc1nc2ccc(C#N)cc2cc1C(c1ccc(Cl)cc1)C1(O)CCN(Cc2ccccc2)CC1 (centres unmarked) [Compound 13] | – | – | IC90 [1]: 25.6 µg/mL (≈ 51.3 µM); melting point: 199 °C
8 | COc1nc2ccc(Br)cc2cc1C(c1ccc(S(C)(=O)=O)cc1)C1(O)CCNCC1 (centres unmarked) [Compound 19] | – | – | IC90 [1]: > 16.1 µg/mL; IC90 [2]: > 16.1 µg/mL
9 | COc1nc2ccc(Br)cc2cc1C(c1ccc(S(C)(=O)=O)cc1)C1(O)CCN(Cc2ccccc2)CC1 (centres unmarked) [Compound 20] | – | – | IC90 [1]: 7.5 µg/mL (≈ 12.6 µM); IC90 [2]: 3.76 µg/mL (≈ 6.31 µM)
10 | COc1nc2ccc(Br)cc2cc1C(c1ccccc1)C1(O)CCN(C)CC1 (centres unmarked) [Compound 28] | >27.85 | 11.09 (≈ 25.1 µM) | –
11 | COc1nc2ccc(Br)cc2cc1C(c1ccc(Cl)cc1)C1(O)CCN(CCc2ccccc2)CC1.O=C(O)/C=C/C(=O)O (centres unmarked) [Compound 47] | 17.86 | 4.49 | –
12 | COc1nc2ccc(Br)cc2cc1C(c1ccc(C#N)cc1)C1(O)CCN(Cc2ccccc2)CC1 (centres unmarked) [Compound 58] | – | – | IC90 [1]: 8.47 µg/mL (≈ 15.6 µM); melting point: 220 °C
13 | COc1nc2ccc(Br)cc2cc1C(c1cccc(C)c1)C1(O)CCN(Cc2ccccc2)CC1 (centres unmarked) [Compound 61] | 15.85 (≈ 29.8 µM) | 3.16 (≈ 5.95 µM) | –
14 | COc1nc2ccc(Br)cc2cc1C(c1ccc(Cl)cc1)C1(O)CCN(Cc2ccccc2C)CC1 (centres unmarked) [Compound 62] | 15.85 (≈ 28 µM) | 3.16 (≈ 5.58 µM) | –
15 | COc1nc2ccc(C#N)cc2cc1C(c1ccc(Cl)cc1)C1(O)CCN(Cc2ccc(C)cc2)CC1 (centres unmarked) [Compound 76] | >21.99 | – | –
16 | O=C(O)/C=C/C(=O)O.OC1(C(c2ccc(Cl)cc2)c2cc3cc(Br)ccc3nc2N2CCOCC2)CCN(Cc2ccccc2)CC1 (centres unmarked) [Compound 77] | >47.23 | – | –
17 | O=c1[nH]c2ccc(-c3cccnc3)cc2cc1C(c1ccc(Cl)cc1)C1(O)CCN(Cc2ccccc2)CC1 (centres unmarked) [Compound 78] | 13.47 (≈ 25.1 µM) | – | –
18 | O=c1[nH]c2ccc(Br)cc2cc1C(c1ccc(Cl)cc1)C1(O)CCNCC1 (centres unmarked) [Compound 79] | 28.25 (≈ 63.1 µM) | – | –
19 | COc1ccc2nc(OC)c(C(c3ccc(Cl)cc3)C3(O)CCN(Cc4ccccc4)CC3)cc2c1.O=C(O)/C=C/C(=O)O (centres unmarked) [Compound 81] | 10.05 | – | –
20 | COc1nc2ccc(Br)cc2cc1C(C1Oc2ccccc2O1)C1(O)CCN(Cc2ccccc2)CC1.O=C(O)/C=C/C(=O)O (centres unmarked) [Compound 85] | 34.54 | – | –
21 | COc1nc2ccc(C(F)(F)F)cc2cc1C(c1ccc(Cl)cc1)C1(O)CCN(Cc2ccccc2)CC1.O=C(O)/C=C/C(=O)O (centres unmarked) [Compound 86] | >43.95 | – | –
22 | O=C(O)/C=C/C(=O)O.OC1(C(c2ccc(Cl)cc2)c2cc3cc(Br)ccc3nc2N2CCCCC2)CCN(Cc2ccccc2)CC1 (centres unmarked) [Compound 87] | >48.13 | – | –
23 | COc1nc2ccc(Cl)cc2cc1C(c1ccc(Br)cc1)C1(O)CCN(Cc2ccccc2)CC1 (centres unmarked) [Compound 88] | 3.98 (≈ 7.21 µM) | 3.16 (≈ 5.73 µM) | –
24 | CS(=O)(=O)c1ccc2[nH]c(=O)c(C(c3ccccc3)C3(O)CCNCC3)cc2c1 (centres unmarked) [Compound 100] | – | – | IC90 [1]: > 11.3 µg/mL; IC90 [2]: > 11.3 µg/mL

Now from value to molecule, other results behind:

Row | IC90 (μg/ml) STA B29213 [1] [µg/mL] | IC90 (μg/ml) MSM 607 [2] [µg/mL] | SMILES | also measured
25 | 3.16 | 0.63 | COc1nc2ccc(C(C)C)cc2cc1C(c1ccc(Cl)cc1)C1(O)CCN(CCc2ccccc2)CC1.O=C(O)/C=C/C(=O)O (racemic) [Compound 91] | –
26 | 10.83 | 3.05 | COc1nc2ccc(-c3cccnc3)cc2cc1C(c1ccc(Cl)cc1)C1(O)CCNCC1.O=C(O)/C=C/C(=O)O (racemic) [Compound 93] | –
27 | 14.99 (≈ 31.6 µM) | 6.70 (≈ 14.1 µM) | COc1nc2ccc(-c3cccnc3)cc2cc1C(c1ccc(Cl)cc1)C1(O)CCN(C)CC1 (racemic) [Compound 94] | –
28 | 15.22 | 6.06 | COc1nc2ccc(Br)cc2cc1C(c1ccccc1Cl)C1(O)CCNCC1.O=C(O)/C=C/C(=O)O (racemic) [Compound 95] | –
29 | 16.25 | 4.08 | COc1nc2ccc(-c3cccnc3)cc2cc1C(c1ccccc1Cl)C1(O)CCNCC1.O=C(O)/C=C/C(=O)O (racemic) [Compound 97] | –
30 | 15.62 | 7.83 | COc1nc2ccc(Br)cc2cc1C(c1cccc(Cl)c1)C1(O)CCNCC1.O=C(O)/C=C/C(=O)O (racemic) [Compound 98] | –
31 | >13.31 | >13.31 | COc1nc2ccc(S(C)(=O)=O)cc2cc1C(c1ccccc1)C1(O)CCNCC1.O=C(O)/C=C/C(=O)O (racemic) [Compound 99] | –
32 | 14.49 | 14.49 | COc1nc2ccc(Br)cc2cc1C(c1ccc(Cl)cc1)C1(O)CCN(Cc2cccc(C#N)c2)CC1.O=C(O)/C=C/C(=O)O (racemic) [Compound 105] | –
33 | >41.36 | – | COc1nc2ccc(C(C)C)cc2cc1C(c1ccc(Cl)cc1)C1(O)CCN(Cc2ccccc2)CC1.O=C(O)/C=C/C(=O)O (centres unmarked) [Compound 90] | –
34 | 13.86 (≈ 25.1 µM) | 6.19 (≈ 11.2 µM) | Cn1c(=O)c(C(c2ccc(Cl)cc2)C2(O)CCN(Cc3ccccc3)CC2)cc2cc(Br)ccc21 (centres unmarked) [Compound 96] | –
35 | >12.04 | 12.04 | Cl.O=c1[nH]c2ccc(Br)cc2cc1C(c1cccc(Cl)c1)C1(O)CCNCC1 (centres unmarked) [Compound 101] | –
36 | 14.58 | 11.58 | CCn1c(=O)c(C(c2ccc(Cl)cc2)C2(O)CCNCC2)cc2cc(Br)ccc21.O=C(O)/C=C/C(=O)O (centres unmarked) [Compound 102] | –
37 | >11.93 | >11.93 | Cl.N#Cc1ccc(C(c2cc3cc(Br)ccc3[nH]c2=O)C2(O)CCNCC2)cc1 (centres unmarked) [Compound 103] | –
38 | >12.96 | 12.96 (≈ 25.1 µM) | COc1nc2ccc(C(N)=O)cc2cc1C(c1ccc(Cl)cc1)C1(O)CCN(Cc2ccccc2)CC1 (centres unmarked) [Compound 107] | –
39 | >13.67 | >13.67 | COc1nc2ccc(C(=O)N(C)C)cc2cc1C(c1ccc(Cl)cc1)C1(O)CCN(Cc2ccccc2)CC1 (centres unmarked) [Compound 108] | –
